Data reported in patent US20060110456A1, “Method for biocidal and/or biostatic treatment and compositions therefor” (NATIONAL UNIVERSITY OF SINGAPORE, priority 2004, published 2006).
Converted amounts (≈) assume the structure as drawn. “Also recorded” adds a separate entry of the source. Structures can show the parent of a compound that is named as a salt.

Tested on: Bugula neritina larvae
Test: Bioassay against bryozoan larvae
Format: in vivo
Settings: crude rank, best (1) to worst (8)
Method: Bugula neritina (Phylum Bryozoa, Class Gymnolaemata, Order Cheilostomatida) is a cosmopolitan species of bryozoan, commonly found in most marine fouling communities. The larvae are brooded in ovicells found on the stem of the colonies. When released, the larva will settle quickly on most surfaces, within a few minutes. At 24° C., the settled larvae forms the one-cell ancestrula, and after 48 hours, the lophophore has developed and extended for feeding.
Adult colonies of Bugula neritina were collected from fouling communities growing on the submerged pontoons on a floating fish farm located off Changi, Singapore. Adult animals were maintained in the open-circulation aquarium at St John's island marine laboratory, Singapore. The adults were kept in total darkness for 24 hours. On exposure to light, larvae were released after half an hour. […] Because the larvae will settle quickly, larvae were pipetted directly into test wells in 1 ml of seawater using a graduated glass pipette.
4 replicates were done for each treatment. After 24 hours, larvae were scored as settled, swimming or dead/deformed. The assay plates were usually kept for another 24 hours and checked again, to ascertain that the settled larvae had developed into viable colonies with lophophores. Two trials were repeated for each compound.
Bioassays were carried out using the method described above, in July 2003 during the peak spawning season for Bugula.

| Compound | Prevention of settlement of Bugula larvae |
| --- | --- |
| CNCCC(Oc1ccc(C(F)(F)F)cc1)c1ccccc1 (centres unmarked) [PZC, fluoxetine hydrochloride] | 3 |
| CN1CCN(CCCN2c3ccccc3Sc3ccc(C(F)(F)F)cc32)CC1 [TFZ, Trifluoperazine hydrochloride] | 2 |
| Cc1nccn1CC1CCc2c(c3ccccc3n2C)C1=O (centres unmarked) [ZFN, ondansetron hydrochloride] | 8 |
| CN[C@H]1CC[C@@H](c2ccc(Cl)c(Cl)c2)c2ccccc21.Cl [ZLT, sertraline hydrochloride] | 1 |
| Cc1cc2c(s1)Nc1ccccc1N=C2N1CCN(C)CC1 [ZPX, olanzapine] | 6 |

Tested on: biofilm bacteria (strains 4, 9, 14, 20, 27, 28)
Test: Effect of pharmaceuticals on adhesion of bacteria to plastic / biofilm formation on NTC and TC plates
Format: cell-based, marine bacteria isolated from Singapore fouling communities
Settings: 25 ug ml−1; NTC = untreated polystyrene, TC = tissue-culture treated; strains 4, 9, 14, 20, 27, 28
Method: Commercial forms of pharmaceuticals were used as previously described. […] These samples were sonicated for at least 1 min and these fine suspensions were used as initial stock solutions.
For studies of bacterial adhesion, the pharmaceuticals were first sterilized by soaking in absolute alcohol (Merck) for half an hour. Ethanol was removed by air-drying with air passed through 0.25 μm pore size syringe filter (Sartorius, Germany). Stock solutions were concentrations of 100 μg ml−1 in SDI.
The effect of pharmaceuticals on bacterial adhesion was analyzed using a modified microplate method adapted from Shea and Williamson (1990). This method employs a combination of staining attached bacteria with crystal violet, releasing the stain with sodium desoxycholate, and measuring the resulting absorbance of the crystal violet.
Detailed results for six selected strains are presented here: strains 4, 9, 14, 20, 27, 28. The bacterial strains were grown in Marine Broth (Pronadisa, Spain) overnight, in the dark, at 28° C. on a rotary shaker (150 rpm) in 5 ml centrifuge tubes (Falcon). Cells were harvested by centrifugation (1500×g, 10 min) and resuspended in sterile seawater (SSW). SSW was prepared by filtering seawater through a 0.2 μm pore size filter (Sartorius) followed by autoclaving. The cells were centrifuged and resuspended once more in SSW. The concentration of resuspended cells was adjusted to A600=1.0 using a spectrophotometer (Beckman DU530, USA).
Flat bottom 96 well polystyrene (hydrophobic, Falcon 351172) (=NTC) and tissue-culture treated polystyrene (hydrophilic, Falcon 353072) (=TC) microplates were used in the analyses. Each test was performed in triplicate. Two sets of experiments were conducted. […] For the control and blank wells, 25 ul of SDI were added. For wells containing pharmaceuticals, 25 ul of the respective pharmaceutical at a concentration of 100 ug ml−1 were added. This was immediately followed by the addition of 75 ul of bacterial suspension. To blanks were added 75 ul of SSW.
The bacterial cells in suspension were allowed to attach for 2 h at 28° C. Unattached cells were removed by aspiration using a plate washer (Tecan, Austria) and wells were rinsed three times with 200 ul of SSW each time. The attached cells were stained with 200 ul of crystal violet solution (0.1% w/v in deionized water) in each well for 5 min. After removing the stain using the plate washer, the wells were rinsed twice with 300 ul of SDI each time. Sodium desoxycholate (200 ul) solution (2% w/v in deionized water) was added to each well to extract the crystal violet from the attached stained cells for 10 min. The absorbance of the crystal violet was read at 590 nm using a microplate reader (Sunrise, Tecan, Austria).
Results of the adhesion assay were obtained by the difference in absorbance readings between wells containing bacterial cells and the mean of absorbance of those containing the SSW only. The effect of the pharmaceuticals on bacterial adhesion was determined by the examining the differences in absorbance between the wells containing the pharmaceuticals+bacteria and the bacteria. The significance was compared using T-test.

| Compound | Effect on formation of bacterial biofilms on NTC and TC plates |
| --- | --- |
| Cc1cc2c(s1)Nc1ccccc1N=C2N1CCN(C)CC1 [ZPX, olanzapine] | prevented biofilm formation for all 6 strains in the NTC plates, and slightly reduced the biofilm formation in strains 4 on the TC plates; also recorded: marked reduction of biofilm growth for all strains on NTC, but only a slight reduction for strain 4 on TC |

Same assay, conditions: 25 ug ml−1; NTC = untreated polystyrene, TC = tissue-culture treated; strains 4, 9, 14, 20, 27, 28; hydrochloride

| Compound | Effect on formation of bacterial biofilms on NTC and TC plates |
| --- | --- |
| CNCCC(Oc1ccc(C(F)(F)F)cc1)c1ccccc1 (centres unmarked) [PZC, fluoxetine hydrochloride] | slight effect on biofilm formation in strain 4 on both TC and NTC plates; also recorded: slight effect on strain 4 (p<0.1) |
| CN1CCN(CCCN2c3ccccc3Sc3ccc(C(F)(F)F)cc32)CC1 [TFZ, Trifluoperazine hydrochloride] | reduced biofilm formation on NTC plates; also recorded: active against strain 4, 14, 27 on NTC but no reduction of biofilms was observed on the TC plates |
| Cc1nccn1CC1CCc2c(c3ccccc3n2C)C1=O (centres unmarked) [ZFN, ondansetron hydrochloride] | reduced bacterial adhesion of the 6 strains to the NTC plates; also recorded: only slight activity (p<0.1) against strain 4 on the TC plates; also recorded: marked reduction of biofilm growth for most on NTC but not on TC |
| CN[C@H]1CC[C@@H](c2ccc(Cl)c(Cl)c2)c2ccccc21.Cl [ZLT, sertraline hydrochloride] | Biofilm formation was reduced for most strains except strain 14; also recorded: reduction of biofilm growth for most strains (except strain 14) on NTC, but only for strain 28 on TC |

Same assay, conditions: crude rank, best (1) to worst (8)

| Compound | Prevention of formation of biofilm |
| --- | --- |
| CNCCC(Oc1ccc(C(F)(F)F)cc1)c1ccccc1 (centres unmarked) [PZC, fluoxetine hydrochloride] | 5 |
| CN1CCN(CCCN2c3ccccc3Sc3ccc(C(F)(F)F)cc32)CC1 [TFZ, Trifluoperazine hydrochloride] | 4 |
| Cc1nccn1CC1CCc2c(c3ccccc3n2C)C1=O (centres unmarked) [ZFN, ondansetron hydrochloride] | 2 |
| CN[C@H]1CC[C@@H](c2ccc(Cl)c(Cl)c2)c2ccccc21.Cl [ZLT, sertraline hydrochloride] | 3 |
| Cc1cc2c(s1)Nc1ccccc1N=C2N1CCN(C)CC1 [ZPX, olanzapine] | 1 |

Tested on: Balanus amphitrite stage II naupliar larvae
Test: not given
Settings: barnacle nauplii, 22 to 24 hours; concentration that caused 50% mortality
Method: (§1) Pharmaceuticals from the respective manufacturers were treated in the following way. A pill containing a known amount of active ingredient (as stated in product information) was ground in a mortar and pestle and a suspension of 2 mg ml^−1 generated in de-ionized water. This stock solution is stored at −20° C. in 4 ml amber screw cap vials. For the bioassays, 250 ul of stock solution is added to 10 ml of 1 um filtered seawater. This suspension was then sonicated for 10 minutes. Serial dilutions of this 50 μg ml^−1 seawater solution, or suspension, with seawater was done to generate the required range of concentrations.
Stage II naupliar larvae used in tests were obtained from Balanus amphitrite adults collected from inter-tidal rock walls at Kranji mangrove, Singapore. Larvae were collected from a container of adults by attraction to a point source of light and transferred to 500 ml of fresh seawater. Next, larvae were re-concentrated with a fiber optic light and added to assays.
Duplicate assays were conducted in 2 ml micro-centrifuge tubes (Axygen MCT-200-C) in 1.5 ml of filtered seawater for 22 to 24 hours. The assays were repeated for confirmation. There were four controls (vehicle only, 0 μg ml^−1), and 2 tubes of each for each test concentration. The assay was initiated by addition of barnacle nauplii in 50 to 100 μl of seawater.
After 22 to 24 hours of incubation at 25-27° C., solutions containing test animals were transferred to a Bogorov tray and scored as living or dead. Moribund larvae were scored as dead. Results were confirmed by repeating the assay. […] If data were not appropriate for probit analysis, the LC50 was estimated from graphed data.

| Compound | LD50 [ng/mL] |
| --- | --- |
| CN1CCN(CCCN2c3ccccc3Sc3ccc(C(F)(F)F)cc32)CC1 [TFZ, Trifluoperazine hydrochloride] | 9.35 |
| Cc1nccn1CC1CCc2c(c3ccccc3n2C)C1=O (centres unmarked) [ZFN, ondansetron hydrochloride] | 468.96 |
| CN[C@H]1CC[C@@H](c2ccc(Cl)c(Cl)c2)c2ccccc21.Cl [ZLT, sertraline hydrochloride] | 1.58 |
| Cc1cc2c(s1)Nc1ccccc1N=C2N1CCN(C)CC1 [ZPX, olanzapine] | 505.82 |

Same assay, conditions: crude rank, best (1) to worst (8)

| Compound | Toxicity to barnacle nauplii |
| --- | --- |
| CN[C@H]1CC[C@@H](c2ccc(Cl)c(Cl)c2)c2ccccc21.Cl [ZLT, sertraline hydrochloride] | 1 |

Same assay, conditions: in vivo

| Compound | Toxicity to barnacle nauplii and cyprids |
| --- | --- |
| CN1CCN(CCCN2c3ccccc3Sc3ccc(C(F)(F)F)cc32)CC1 [TFZ, Trifluoperazine hydrochloride] | very toxic to nauplii and cyprids |

Tested on: Balanus amphitrite cyprids
Test: whole plant or invertebrate
Settings: Amphibalanus amphitrite, 24 h, read-out: ED50
Method: as §1
This method is now standard practice for many antifouling screening of novel compounds.
Barnacle larvae from field-collected adults were reared on an algal mixture of 1:2:2 v/v of Rhodomonas salina, Tetraselmis suecica and Chaetoceros muelleri at 25° C., at approximately 5×10^5 cells per ml density. On this regime, larvae metamorphose to cyprids in 5 days.
Test solutions were made up to twice the required final concentration. 1 ml of test solution was added into each well, and cyprids were transferred into each well in 1 ml of seawater. Assays were done in triplicate. After 24 hours, larvae that had attached and metamorphosed were enumerated and the result expressed as percentage settlement. Larvae not attached were scored as not settled.
The Therapeutic Ratio, or LC50/EC50, is a way of assessing the effectiveness of the compound in relation to its toxicity. […] LC50 and EC50 estimates and the therapeutic ratio should be considered as working values providing an estimation of potency, rather than as absolutes.

| Compound | IC50 [µg/mL] |
| --- | --- |
| CN1CCN(CCCN2c3ccccc3Sc3ccc(C(F)(F)F)cc32)CC1 [TFZ, Trifluoperazine hydrochloride] | 0.0748 |
| Cc1nccn1CC1CCc2c(c3ccccc3n2C)C1=O (centres unmarked) [ZFN, ondansetron hydrochloride] | 0.242 |
| Cc1cc2c(s1)Nc1ccccc1N=C2N1CCN(C)CC1 [ZPX, olanzapine] | 0.00231 (≈ 7.39 nM) |

Same assay, conditions: barnacle cyprids, 24 hours; concentration that caused 50% settlement inhibition

| Compound | ED50 [µg/mL] |
| --- | --- |
| CN[C@H]1CC[C@@H](c2ccc(Cl)c(Cl)c2)c2ccccc21.Cl [ZLT, sertraline hydrochloride] | 0.50185 |

Same assay, conditions: crude rank, best (1) to worst (8)

| Compound | Prevention of settlement of barnacle cyprids |
| --- | --- |
| CNCCC(Oc1ccc(C(F)(F)F)cc1)c1ccccc1 (centres unmarked) [PZC, fluoxetine hydrochloride] | 7 |
| CN1CCN(CCCN2c3ccccc3Sc3ccc(C(F)(F)F)cc32)CC1 [TFZ, Trifluoperazine hydrochloride] | 2 |
| Cc1nccn1CC1CCc2c(c3ccccc3n2C)C1=O (centres unmarked) [ZFN, ondansetron hydrochloride] | 5 |
| CN[C@H]1CC[C@@H](c2ccc(Cl)c(Cl)c2)c2ccccc21.Cl [ZLT, sertraline hydrochloride] | 6 |
| Cc1cc2c(s1)Nc1ccccc1N=C2N1CCN(C)CC1 [ZPX, olanzapine] | 1 |

Same assay, conditions: in words

| Compound | Effect on settlement of cyprids |
| --- | --- |
| Cc1cc2c(s1)Nc1ccccc1N=C2N1CCN(C)CC1 [ZPX, olanzapine] | at concentrations less than 1 ug ml^−1, the cyprids were not killed but were not able to settle; also recorded: prevented the settlement of cyprids |

Same assay, conditions: settlement bioassay wells

| Compound | Mortality of cyprids |
| --- | --- |
| Cc1cc2c(s1)Nc1ccccc1N=C2N1CCN(C)CC1 [ZPX, olanzapine] | not very different from the control |
